Source: article PMC7067850, “Identification of highly potent and selective inhibitor, TIPTP, of the p22phox-Rubicon axis as a therapeutic agent for rheumatoid arthritis” (Scientific Reports, 2020)

Columns and labels:
[1] = test system: NADPH oxidase; test: NADPH oxidase activity (lucigenin-ECL) in BMDMs; assay type: cell-based, mouse; conditions: LPS or LPS/ATP stimulated (Fig. 3c, Supplemental Fig. 5b, 5e)
Procedure: Intracellular superoxide production was measured by the lucigenin (bis-N-methylacridinium nitrate)-ECL method[18],[19]. Briefly, cells lysates were allowed to equilibrate for 30 min at 37 °C in a reaction containing 50 mM phosphate buffer (pH 7.0), 1 mM EGTA, 150 mM sucrose, and a protease inhibitor mixture prior to the addition of Krebs-HEPES buffer containing lucigenin (5 μM) as the electron acceptor and NADPH (100 μM) as the electron donor. The values are expressed as relative light units per 1 × 10^5 cells.
Figure 3 TIPTP robustly suppresses LPS/ATP-mediated Rubicon-p22phox interaction and ROS-mediated inflammation. (a) Structure of the TIPTP. (b) MTT assay for cell viability. BMDMs were incubated with TIPTP for the indicated times at the indicated TIPTP concentrations (upper). WCLs were used for IB with α22phox, αRubicon, or αActin (lower). (c–f) LPS (100 ng/ml)-primed BMDMs were treated with compounds for 1 h, and then activated with ATP (1 mM) for 30 min. (c) NADPH oxidase activity. (d) FACS analysis for superoxide and hydrogen peroxide (upper). Quantitative analysis of mean fluorescence intensities of ROS (lower). (e) BMDMs were incubated with increasing concentrations of compound 1 and TIPTP (com 2) (***). IP with αRubicon, followed by IB with αp22phox, αBeclin-1, αUVRAG, αRubicon. […] (f) Culture supernatants were harvested and analyzed for cytokines by ELISA. […]

[2] = molecular target: T1, CYP3A4 (Homo sapiens, UniProt P08684); test: CYP450 inhibition assay in human liver microsomes; assay type: in vitro ADME
T1 construct: To human liver microsomes (0.25 mg/mL); from tissue; host or cells: human liver microsomes
Procedure: (§1) All of CYP inhibition, microsomal stability and plasma stability experiments were performed by New Drug Development Center, the Daegu-Gyeongbuk Medical Innovation Foundation (DGMIF), South Korea. To human liver microsomes (0.25 mg/mL), 0.1 M phosphate buffer (pH 7.4), a cocktail of five probe substrates (Phenacetin 50 μM, Diclofenac 10 μM, S-mephenytoin 100 μM, Dextromethorphan 5 μM, and Midazolam 2.5 μM), and tested compounds were added at concentrations of 0 μM (as a control) and 10 μM. After incubation at 37 °C for 5 min, NADPH generation system solution was also added and incubated at 37 °C for 15 min again. To terminate the reaction, acetonitrile including internal standard (Terfenadine) was added, and the solution was centrifuged for 5 min (14 000 rpm, 4 °C). The supernatant was then injected into the LC-MS/MS system to simultaneously analyze the metabolites of the probe substrates and evaluate the % CYP inhibition of the tested compound.

[3] = molecular target: T2, CYP1A2 (Homo sapiens, UniProt P05177); test: CYP450 inhibition assay in human liver microsomes; assay type: in vitro ADME
T2 construct: To human liver microsomes (0.25 mg/mL); from tissue; host or cells: human liver microsomes
T2 sequence (P05177 1-516): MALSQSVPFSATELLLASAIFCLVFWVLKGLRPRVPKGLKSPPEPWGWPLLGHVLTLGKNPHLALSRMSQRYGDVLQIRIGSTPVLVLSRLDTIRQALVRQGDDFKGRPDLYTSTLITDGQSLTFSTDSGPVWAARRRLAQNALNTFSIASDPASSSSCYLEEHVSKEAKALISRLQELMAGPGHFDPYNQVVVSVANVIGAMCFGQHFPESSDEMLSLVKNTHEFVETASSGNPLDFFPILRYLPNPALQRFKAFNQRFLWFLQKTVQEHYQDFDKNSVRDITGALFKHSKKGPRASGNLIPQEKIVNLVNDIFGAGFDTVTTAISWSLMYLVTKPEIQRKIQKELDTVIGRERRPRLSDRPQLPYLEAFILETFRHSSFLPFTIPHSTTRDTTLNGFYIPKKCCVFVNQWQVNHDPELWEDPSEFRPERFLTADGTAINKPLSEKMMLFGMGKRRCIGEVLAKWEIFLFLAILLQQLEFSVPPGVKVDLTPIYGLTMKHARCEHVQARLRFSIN
Procedure: as §1

[4] = molecular target: T3, CYP2D6 (Homo sapiens, UniProt P10635); test: CYP450 inhibition assay in human liver microsomes; assay type: in vitro ADME
T3 construct: To human liver microsomes (0.25 mg/mL); from tissue; host or cells: human liver microsomes
Procedure: as §1

T3 sequence (P10635 whole entry): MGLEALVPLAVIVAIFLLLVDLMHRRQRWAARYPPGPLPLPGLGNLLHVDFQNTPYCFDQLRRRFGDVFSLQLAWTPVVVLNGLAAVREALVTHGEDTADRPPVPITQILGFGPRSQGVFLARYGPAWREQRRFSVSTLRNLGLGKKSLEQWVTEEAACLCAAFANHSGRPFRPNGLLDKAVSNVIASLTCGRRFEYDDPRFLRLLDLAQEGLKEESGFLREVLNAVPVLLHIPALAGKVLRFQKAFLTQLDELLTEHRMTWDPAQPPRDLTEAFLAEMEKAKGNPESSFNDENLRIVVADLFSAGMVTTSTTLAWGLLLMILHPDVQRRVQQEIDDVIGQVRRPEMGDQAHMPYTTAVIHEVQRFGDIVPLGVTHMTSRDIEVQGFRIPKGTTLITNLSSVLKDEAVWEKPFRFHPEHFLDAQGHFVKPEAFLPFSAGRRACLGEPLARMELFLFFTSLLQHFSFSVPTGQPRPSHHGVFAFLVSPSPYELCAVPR
T1 sequence (P08684 whole entry): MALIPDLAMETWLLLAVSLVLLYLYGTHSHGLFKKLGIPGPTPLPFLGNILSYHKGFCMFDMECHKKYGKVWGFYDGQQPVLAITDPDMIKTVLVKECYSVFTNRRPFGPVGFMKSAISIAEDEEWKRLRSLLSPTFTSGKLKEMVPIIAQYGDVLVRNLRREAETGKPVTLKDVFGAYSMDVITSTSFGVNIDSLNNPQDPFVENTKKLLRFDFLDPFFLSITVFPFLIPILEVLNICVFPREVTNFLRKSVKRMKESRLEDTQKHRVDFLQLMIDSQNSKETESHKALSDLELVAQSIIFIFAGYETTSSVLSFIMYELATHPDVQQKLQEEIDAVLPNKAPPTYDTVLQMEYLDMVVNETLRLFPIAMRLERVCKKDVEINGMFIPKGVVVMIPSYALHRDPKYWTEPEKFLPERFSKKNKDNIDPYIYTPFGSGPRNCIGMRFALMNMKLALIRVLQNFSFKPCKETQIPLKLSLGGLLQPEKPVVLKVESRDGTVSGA

C[C@@H](Oc1cccc(-n2cc3c(n2)CCCC3)c1)C(=O)Nc1nnc(C(F)(F)F)s1 [TIPTP, (R)-2-(3-(4,5,6,7-tetrahydro-2H-indazol-2-yl)phenoxy)-N-(5-(trifluoromethyl)-1,3,4-thiadiazol-2-yl)propanamide]
NOX activity [1]: inhibited in a dose-dependent manner
CYP (% of control activity @ 10 μM) 3A4 [2]: 76.6%
CYP (% of control activity @ 10 μM) 1A2 [3]: 45.7%
CYP (% of control activity @ 10 μM) 2D6 ([4]; 10 μM): 98.2%
effect on the CYP2D6 isozyme ([4]; in words): negligible
